According to US10676792B2, “Prognostic and diagnostic methods for colorectal cancer” (The Regents of the University of California, priority 2015, dated 2020):

Tested on: P-Y1068-EGFR
Assay: Western blot analysis of P-Y1068-EGFR in EGF-stimulated HCT15 cells treated with DGK inhibitor
Format: cell-based, human
Conditions: versus DMSO control, pre-incubated 30 min
Experimental: Cells were plated in 6 or 10 cm dishes and starved for 2 h at 37 C in PBS. After resting, cells were EGF-stimulated for different time 3, 10 or 30 min. Cells were lysed with ice-cold 2% NP40 supplemented with protease and phosphatase inhibitors [10 mM sodium fluoride, 2 mM sodium orthovanadate, 0.5 mM EDTA, 2 mM phenyl-methylsulfonyl fluoride, 1 mM sodium molybdate, aprotonin (10 mg/ml), leupeptin (10 mg/ml), pepstatin (1 mg/ml)]. After 30 min on ice, lysates were centrifuged and supernatant were mix with 2× sample buffer. Protein lysates were separated on acrylamide gel 10%, transferred on PVDF membrane and incubated with primary antibodies of interest. Inhibitors such as Rottlerin (20 μM) and DGK were pre-incubated for 30 min before stimulation. Western blots were visualized with enhanced chemo-luminescence and imaging on a Fuji LAS 4000 image station (GE Healthcare). The protein bands in Western blots were quantified with Multi Gauge software, and densitometry (pixel intensity) was determined within the linear range of the exposure. Amounts of the proteins of interest were typically presented as a ratio of the indicated loading control. Values were then normalized to an indicated sample and noted as a fold difference. Results represent at least three independent experiments.

In the case of `O=c1c2ccccc2[nH]c(=S)n1CCN1CCC(=C(c2ccc(F)cc2)c2ccc(F)cc2)CC1` [R59949], the P-Y1068-EGFR levels is reported as “decreased levels”.
